# From patent US20260217673A1, “NOVEL COMPOUND AS RON INHIBITOR” (LG CHEM, LTD., priority 2022, published 2026)
# Assays:
# RON = RON (Homo sapiens, UniProt Q04912); test: RON inhibitory activity, TR-FRET kinase assay; type: biochemical; conditions: RON protein, ULight-labeled Poly GT substrate
# In short: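 RON was preincubated with compound for 20-30 min at room temperature in HEPES buffer (pH 7.4) with MgCl2 and DTT. Phosphorylation of ULight-Poly GT with ATP ran 60 min before EDTA stop. Europium anti-phosphotyrosine TR-FRET (ex 340, em 620/665 nm) was read and IC50 derived from 10-point 3-fold dilutions.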
# cMET = cMET (Homo sapiens, UniProt P08581); test: MET (cMET) enzyme inhibitory activity, TR-FRET kinase assay; type: biochemical; conditions: cMET protein, TK peptide substrate
# In short: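 cMET diluted to 2 nM was preincubated 20–30 min at room temperature with compound (10-point 3-fold series from 1 mM DMSO stock). The reaction was started with TK peptide/ATP substrate mix prepared at 2× final (5 μM peptide, 10 mM ATP), run 60 min at room temperature in HEPES pH 7.4 buffer with MnCl2/MgCl2, then EDTA-stopped. Europium anti-phosphotyrosine TR-FRET (ex 340, em 620/665 nm) gave IC50.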
# Chain of cMET (P08581 25-1390): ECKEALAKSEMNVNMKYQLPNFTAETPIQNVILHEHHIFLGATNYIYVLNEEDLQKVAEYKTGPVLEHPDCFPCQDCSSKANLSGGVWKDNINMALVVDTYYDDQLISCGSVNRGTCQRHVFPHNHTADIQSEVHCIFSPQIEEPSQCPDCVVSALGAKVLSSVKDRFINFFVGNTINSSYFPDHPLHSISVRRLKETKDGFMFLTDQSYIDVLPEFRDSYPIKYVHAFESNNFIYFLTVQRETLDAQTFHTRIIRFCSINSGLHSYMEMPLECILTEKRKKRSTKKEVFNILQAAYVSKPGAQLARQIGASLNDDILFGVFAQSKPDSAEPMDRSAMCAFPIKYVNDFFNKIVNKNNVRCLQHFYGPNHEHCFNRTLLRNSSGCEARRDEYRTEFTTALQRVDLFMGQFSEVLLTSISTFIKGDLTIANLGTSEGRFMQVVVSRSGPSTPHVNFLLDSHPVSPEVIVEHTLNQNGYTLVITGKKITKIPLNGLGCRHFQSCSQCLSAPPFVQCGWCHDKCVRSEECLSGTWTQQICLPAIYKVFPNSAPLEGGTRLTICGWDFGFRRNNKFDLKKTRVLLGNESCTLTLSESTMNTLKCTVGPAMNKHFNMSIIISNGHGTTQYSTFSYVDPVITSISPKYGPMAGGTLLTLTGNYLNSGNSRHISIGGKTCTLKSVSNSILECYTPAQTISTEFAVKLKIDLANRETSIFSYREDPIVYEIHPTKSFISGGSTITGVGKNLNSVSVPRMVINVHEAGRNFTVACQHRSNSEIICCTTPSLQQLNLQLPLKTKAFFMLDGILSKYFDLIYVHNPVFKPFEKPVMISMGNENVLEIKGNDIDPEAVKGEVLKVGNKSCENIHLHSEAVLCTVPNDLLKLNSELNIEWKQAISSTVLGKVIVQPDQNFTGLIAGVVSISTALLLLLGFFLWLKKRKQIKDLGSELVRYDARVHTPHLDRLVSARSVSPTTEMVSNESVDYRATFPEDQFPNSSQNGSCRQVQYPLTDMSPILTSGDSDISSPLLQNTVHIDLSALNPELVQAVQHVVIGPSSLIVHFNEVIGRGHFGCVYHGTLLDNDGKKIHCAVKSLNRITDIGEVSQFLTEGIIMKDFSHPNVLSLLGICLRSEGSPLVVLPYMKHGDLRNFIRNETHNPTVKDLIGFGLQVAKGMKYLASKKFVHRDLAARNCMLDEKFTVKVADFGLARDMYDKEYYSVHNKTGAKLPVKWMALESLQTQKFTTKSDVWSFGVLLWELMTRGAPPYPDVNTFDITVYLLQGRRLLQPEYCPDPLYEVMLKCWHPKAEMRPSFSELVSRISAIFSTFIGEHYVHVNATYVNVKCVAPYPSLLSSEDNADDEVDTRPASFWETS
# Chain of RON (Q04912 25-1400, species assumed): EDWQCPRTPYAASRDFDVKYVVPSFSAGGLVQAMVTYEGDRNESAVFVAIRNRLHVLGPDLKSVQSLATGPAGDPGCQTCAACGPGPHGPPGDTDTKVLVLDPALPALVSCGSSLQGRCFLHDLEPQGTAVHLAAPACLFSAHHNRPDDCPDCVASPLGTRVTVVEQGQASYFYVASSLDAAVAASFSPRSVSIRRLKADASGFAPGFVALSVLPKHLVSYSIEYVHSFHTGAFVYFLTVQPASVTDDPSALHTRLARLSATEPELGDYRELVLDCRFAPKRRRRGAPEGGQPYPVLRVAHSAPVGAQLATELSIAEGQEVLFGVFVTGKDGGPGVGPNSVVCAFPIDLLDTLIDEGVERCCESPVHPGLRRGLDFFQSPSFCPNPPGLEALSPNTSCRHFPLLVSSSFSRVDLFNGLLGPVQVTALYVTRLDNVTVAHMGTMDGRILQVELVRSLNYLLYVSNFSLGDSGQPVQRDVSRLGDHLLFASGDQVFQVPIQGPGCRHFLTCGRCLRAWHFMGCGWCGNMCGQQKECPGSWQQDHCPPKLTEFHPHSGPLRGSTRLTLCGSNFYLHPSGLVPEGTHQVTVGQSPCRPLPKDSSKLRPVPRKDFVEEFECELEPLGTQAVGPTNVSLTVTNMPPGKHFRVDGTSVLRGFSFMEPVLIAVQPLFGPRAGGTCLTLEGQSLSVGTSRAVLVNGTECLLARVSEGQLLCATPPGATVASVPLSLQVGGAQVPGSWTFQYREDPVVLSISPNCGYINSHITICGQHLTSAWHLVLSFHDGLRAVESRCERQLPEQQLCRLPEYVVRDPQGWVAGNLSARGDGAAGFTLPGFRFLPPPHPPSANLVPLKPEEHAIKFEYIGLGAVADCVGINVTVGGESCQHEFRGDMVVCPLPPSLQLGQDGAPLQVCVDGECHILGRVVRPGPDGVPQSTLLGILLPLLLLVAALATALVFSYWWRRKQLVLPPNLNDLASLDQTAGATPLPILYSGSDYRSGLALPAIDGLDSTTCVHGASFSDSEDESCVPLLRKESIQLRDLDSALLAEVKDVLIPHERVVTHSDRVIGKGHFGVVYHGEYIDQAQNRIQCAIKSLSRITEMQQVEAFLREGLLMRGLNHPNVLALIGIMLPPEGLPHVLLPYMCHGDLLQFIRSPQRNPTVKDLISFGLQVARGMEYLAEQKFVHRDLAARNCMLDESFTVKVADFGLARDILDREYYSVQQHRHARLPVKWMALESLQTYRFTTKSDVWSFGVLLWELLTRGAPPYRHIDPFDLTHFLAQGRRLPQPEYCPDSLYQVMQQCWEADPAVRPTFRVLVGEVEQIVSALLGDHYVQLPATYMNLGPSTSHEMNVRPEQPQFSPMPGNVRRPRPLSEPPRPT
SMILES,IC50 (RON) [nM],IC50 (cMET) [nM]
"Nc1nccc(Oc2c(F)cc(NC(=O)c3cnn(-c4ccccc4)c3C(F)(F)F)cc2F)c1C#CCO [Example 51, N-(4-((2-amino-3-(3-hydroxyprop-1-yn-1-yl)pyridin-4-yl)oxy)-3,5-difluorophenyl)-1-phenyl-5-(trifluoromethyl)-1H-pyrazole-4-carboxamide]",< 50,500 to 5000
"Nc1nccc(Oc2c(F)cc(NC(=O)c3cnn(-c4ccccn4)c3C(F)(F)F)cc2F)c1C#CCO [Example 52, N-(4-((2-amino-3-(3-hydroxyprop-1-yn-1-yl)pyridin-4-yl)oxy)-3,5-difluorophenyl)-1-(pyridin-2-yl)-5-(trifluoromethyl)-1H-pyrazole-4-carboxamide]",< 50,50 to 500
"Nc1nccc(Oc2c(F)cc(NC(=O)c3cnn(-c4ncccc4F)c3C(F)(F)F)cc2F)c1C#CCO [Example 53, N-(4-((2-amino-3-(3-hydroxyprop-1-yn-1-yl)pyridin-4-yl)oxy)-3,5-difluorophenyl)-1-(3-fluoropyridin-2-yl)-5-(trifluoromethyl)-1H-pyrazole-4-carboxamide]",< 50,50 to 500
"Nc1nccc(Oc2c(F)cc(NC(=O)c3cnn(-c4ncccc4Cl)c3C(F)(F)F)cc2F)c1C#CCO [Example 54, N-(4-((2-amino-3-(3-hydroxyprop-1-yn-1-yl)pyridin-4-yl)oxy)-3,5-difluorophenyl)-1-(3-chloropyridin-2-yl)-5-(trifluoromethyl)-1H-pyrazole-4-carboxamide]",< 50,50 to 500
"Nc1nccc(Oc2c(F)cc(NC(=O)c3cnn(-c4ncccn4)c3C(F)(F)F)cc2F)c1C#CCO [Example 55, N-(4-((2-amino-3-(3-hydroxyprop-1-yn-1-yl)pyridin-4-yl)oxy)-3,5-difluorophenyl)-1-(pyrimidin-2-yl)-5-(trifluoromethyl)-1H-pyrazole-4-carboxamide]",< 50,50 to 500
"Nc1nccc(Oc2c(F)cc(NC(=O)c3cnn(-c4cccnn4)c3C(F)(F)F)cc2F)c1C#CCO [Example 56, N-(4-((2-amino-3-(3-hydroxyprop-1-yn-1-yl)pyridin-4-yl)oxy)-3,5-difluorophenyl)-1-(pyridazin-3-yl)-5-(trifluoromethyl)-1H-pyrazole-4-carboxamide]",< 50,50 to 500
"CC(O)C#Cc1c(Oc2c(F)cc(NC(=O)c3cnn(-c4ncccc4F)c3C(F)(F)F)cc2F)ccnc1N (stereo not shown) [Example 57, N-(4-((2-amino-3-(3-hydroxybut-1-yn-1-yl)pyridin-4-yl)oxy)-3,5-difluorophenyl)-1-(3-fluoropyridin-2-yl)-5-(trifluoromethyl)-1H-pyrazole-4-carboxamide]",< 50,50 to 500
"CC(C)(O)C#Cc1c(Oc2c(F)cc(NC(=O)c3cnn(-c4ncccc4F)c3C(F)(F)F)cc2F)ccnc1N [Example 58, N-(4-((2-amino-3-(3-hydroxy-3-methylbut-1-yn-1-yl)pyridin-4-yl)oxy)-3,5-difluorophenyl)-1-(3-fluoropyridin-2-yl)-5-(trifluoromethyl)-1H-pyrazole-4-carboxamide]",< 50,50 to 500
"COCCCN1CCC(n2ncc(C(=O)Nc3cc(F)c(Oc4ccnc(N)c4Cl)c(F)c3)c2C(F)(F)F)CC1 [Example 59, N-(4-((2-amino-3-chloropyridin-4-yl)oxy)-3,5-difluorophenyl)-1-(1-(3-methoxypropyl)piperidin-4-yl)-5-(trifluoromethyl)-1H-pyrazole-4-carboxamide]",500 to 5000,> 5000
"CCOCC(=O)N1CCC(n2ncc(C(=O)Nc3cc(F)c(Oc4ccnc(N)c4Cl)c(F)c3)c2C(F)(F)F)CC1 [Example 60, N-(4-((2-amino-3-chloropyridin-4-yl)oxy)-3,5-difluorophenyl)-1-(1-(2-ethoxyacetyl)piperidin-4-yl)-5-(trifluoromethyl)-1H-pyrazole-4-carboxamide]",500 to 5000,500 to 5000
"COCCCn1ncc(C(=O)Nc2cc(F)c(Oc3ccnc(N)c3Cl)c(F)c2)c1C(F)(F)F [Example 61, N-[4-[(2-amino-3-chloro-4-pyridyl)oxy]-3,5-difluoro-phenyl]-1-(3-methoxypropyl)-5-(trifluoromethyl)pyrazole-4-carboxamide]",50 to 500,500 to 5000
